Assay results reported in EP0735879B1, “USE OF AMINO CYCLODEXTRINS FOR THE AQUEOUS SOLUBILISATION OF DIBENZAZEPINES FOR USE AS AN ANTIEPILEPTIC AGENT” (COMMISSARIAT A L'ENERGIE ATOMIQUE, priority 1993, dated 1995).
≈ marks a conversion by molar mass, not a printed value. Where “and” joins values, the source holds several entries; their conditions need not be identical. Equal values may be shown once.

Assays:
in vitro = conditions: human, erythrocytes, pH 7
Experimental: Les propriétés hémolytiques du chlorhydrate ont été testées en mettant en contact 0,4 ml d'une suspension d'érythrocytes humains avec 4 ml de la solution du chlorhydrate dans 10 mmol d'un tampon phosphate isotonique à un pH de 7,4, pendant 30 minutes à 37°C.

[1] = Solubility in water of the cyclodextrin; type: physicochemical; conditions: 20°C, read-out: solubilité dans l'eau
[2] = pH of an aqueous solution of the hydrochloride; type: physicochemical; conditions: solution à 1 % en poids du chlorhydrate dans de l'eau
[3] = system: rat Sprague-Dawley mâle et femelle; assay: Acute toxicity, intravenous injection; type: in vivo; conditions: voie intraveineuse, chlorhydrate, 2g/kg de poids corporel
Escherichia Coli = assay: Ames test, mutagenicity; type: cell-based; conditions: test de AMES, souches d'Escherichia Coli
Salmonella typhimurium = assay: Ames test, mutagenicity; type: cell-based; conditions: test de AMES, souches de Salmonella typhimurium
physchem = type: physicochemical; conditions: 25°C, read-out: solubilité de la carbamazépine
Experimental: Dans cet exemple on évalue la solubilisation de la carbamazépine par différents dérivés de cyclodextrines dans des conditions standardisées. Les mesures de solubilité sont réalisées à 25°C en présence de la cyclodextrine considérée à la concentration de 25 mmol/l, le pH de la solution étant ajusté dans tous les cas à 7,4 pour simuler autant que posible les conditions physiologiques.

[4] = 25°C; cited from earlier work

solubility (physchem; phosphate buffer, pH 7.4, aqueous buffer, Tampon Phosphate 7,4, without cyclodextrin) [µM] | solubility (physchem; pure water, water, Eau pure, without cyclodextrin) [µM] | SMILES | HC50 at 0.5 h (in vitro) | solubility [1] [mg/mL] | pH [2] | mortalité [3] | activité mutagène (Escherichia Coli) | activité mutagène (Salmonella typhimurium) | solubilité dans l'eau pure [4] [µg/mL]
 |  | OC[C@H]1O[C@@H]2O[C@H]3[C@H](O)[C@@H](O)[C@@H](O[C@H]4[C@H](O)[C@@H](O)[C@@H](O[C@H]5[C@H](O)[C@@H](O)[C@@H](O[C@H]6[C@H](O)[C@@H](O)[C@@H](O[C@H]7[C@H](O)[C@@H](O)[C@@H](O[C@H]8[C@H](O)[C@@H](O)[C@@H](O[C@H]1[C@H](O)[C@H]2O)O[C@@H]8CO)O[C@@H]7CO)O[C@@H]6CO)O[C@@H]5CO)O[C@@H]4CO)O[C@@H]3CO [β-CD, β-cyclodextrine, reference compound] | 5 mM and ~6000 µg/mL |  |  |  |  |  | 
 |  | NC[C@H]1O[C@@H]2O[C@H]3[C@H](O)[C@@H](O)[C@@H](O[C@H]4[C@H](O)[C@@H](O)[C@@H](O[C@H]5[C@H](O)[C@@H](O)[C@@H](O[C@H]6[C@H](O)[C@@H](O)[C@@H](O[C@H]7[C@H](O)[C@@H](O)[C@@H](O[C@H]8[C@H](O)[C@@H](O)[C@@H](O[C@H]1[C@H](O)[C@H]2O)O[C@@H]8CO)O[C@@H]7CO)O[C@@H]6CO)O[C@@H]5CO)O[C@@H]4CO)O[C@@H]3CO [β-CD-NH2, mono-6-amino-β-cyclodextrine] | ~30 mM and ~35000 µg/mL | 200 (≈ 176 mM) | 6,8 | aucune mortalité | aucune activité mutagène | aucune activité mutagène | 
< 70 | < 50 | NC(=O)N1c2ccccc2C=Cc2ccccc21 [Carbamazépine, carbamazépine] |  |  |  |  |  |  | 12
